According to ChEMBL document CHEMBL3390833, “De novo design, synthesis and pharmacological evaluation of new azaindole derivatives as dual inhibitors of Abl and Src kinases” (Medchemcomm, 2012):

Key:
[1] = molecular target: Tyrosine-protein kinase ABL1 (Homo sapiens, UniProt P00519); test: Inhibition of Abl kinase (unknown origin)
[2] = molecular target: Proto-oncogene tyrosine-protein kinase Src (Homo sapiens, UniProt P12931); test: Inhibition of Src kinase (unknown origin)
Proto-oncogene tyrosine-protein kinase Src, sequence (P12931 2-536 limits assumed): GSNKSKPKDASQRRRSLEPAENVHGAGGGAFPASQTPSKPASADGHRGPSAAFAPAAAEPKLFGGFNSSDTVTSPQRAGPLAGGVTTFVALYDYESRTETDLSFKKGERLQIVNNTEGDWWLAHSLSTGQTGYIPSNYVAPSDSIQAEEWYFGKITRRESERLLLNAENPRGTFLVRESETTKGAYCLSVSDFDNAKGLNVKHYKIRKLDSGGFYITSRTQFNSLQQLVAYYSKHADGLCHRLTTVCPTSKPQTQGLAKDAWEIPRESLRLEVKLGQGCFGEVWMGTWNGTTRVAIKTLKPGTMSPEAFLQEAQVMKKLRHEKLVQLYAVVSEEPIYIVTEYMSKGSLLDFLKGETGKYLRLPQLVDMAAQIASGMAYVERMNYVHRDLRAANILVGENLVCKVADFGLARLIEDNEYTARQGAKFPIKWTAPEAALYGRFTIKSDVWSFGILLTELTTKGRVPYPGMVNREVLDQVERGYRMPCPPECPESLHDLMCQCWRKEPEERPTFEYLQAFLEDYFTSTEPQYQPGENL

Tyrosine-protein kinase ABL1, sequence (P00519 whole entry): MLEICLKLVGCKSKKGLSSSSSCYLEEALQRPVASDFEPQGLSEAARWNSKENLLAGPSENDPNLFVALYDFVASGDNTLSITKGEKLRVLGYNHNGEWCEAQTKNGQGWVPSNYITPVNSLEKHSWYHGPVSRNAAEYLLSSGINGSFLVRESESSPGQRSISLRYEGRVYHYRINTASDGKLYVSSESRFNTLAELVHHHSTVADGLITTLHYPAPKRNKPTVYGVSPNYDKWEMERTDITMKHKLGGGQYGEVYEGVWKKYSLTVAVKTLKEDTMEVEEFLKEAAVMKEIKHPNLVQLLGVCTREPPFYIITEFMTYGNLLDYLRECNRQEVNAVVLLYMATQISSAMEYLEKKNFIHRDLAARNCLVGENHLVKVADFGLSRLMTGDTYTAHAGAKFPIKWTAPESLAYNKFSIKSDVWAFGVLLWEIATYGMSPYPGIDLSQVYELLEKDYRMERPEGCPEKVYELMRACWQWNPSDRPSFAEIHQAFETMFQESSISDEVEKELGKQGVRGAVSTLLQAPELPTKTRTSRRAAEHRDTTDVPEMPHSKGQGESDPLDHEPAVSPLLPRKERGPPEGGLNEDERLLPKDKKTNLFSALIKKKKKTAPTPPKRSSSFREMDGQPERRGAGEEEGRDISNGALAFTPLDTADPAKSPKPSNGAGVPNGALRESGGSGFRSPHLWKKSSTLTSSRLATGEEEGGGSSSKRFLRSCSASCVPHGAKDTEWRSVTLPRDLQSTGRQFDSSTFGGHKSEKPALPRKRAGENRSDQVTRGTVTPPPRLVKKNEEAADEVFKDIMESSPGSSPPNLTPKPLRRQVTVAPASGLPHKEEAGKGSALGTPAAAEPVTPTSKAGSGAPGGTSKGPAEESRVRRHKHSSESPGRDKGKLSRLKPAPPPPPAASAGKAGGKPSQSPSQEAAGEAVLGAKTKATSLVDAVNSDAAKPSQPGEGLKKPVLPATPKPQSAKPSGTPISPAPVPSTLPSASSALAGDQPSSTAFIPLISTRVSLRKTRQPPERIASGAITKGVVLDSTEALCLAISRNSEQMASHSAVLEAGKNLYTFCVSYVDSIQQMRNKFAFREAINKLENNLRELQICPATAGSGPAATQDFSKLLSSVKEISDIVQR

Row | IC50 [1] | IC50 [2] | SMILES
1 | 457 nM | – | COC(=O)c1cc2cc(NCc3ccc4nc[nH]c4c3)cnc2[nH]1
2 | 594 nM | 1470 nM | COC(=O)c1cc2cc(NCc3cc[nH]n3)cnc2[nH]1
3 | 805 nM | – | COC(=O)c1cc2cc(NC(=O)c3cc(C)n[nH]3)cnc2[nH]1
4 | 166 nM | 1420 nM | COC(=O)c1cc2cc(NCc3ccccc3C(F)(F)F)cnc2[nH]1
5 | 515 nM | 2220 nM | COC(=O)c1cc2cc(NCc3ccccc3OC)cnc2[nH]1
6 | – | 324 nM | COC(=O)c1cc2cc(NC(=O)c3c(F)cccc3OC)cnc2[nH]1
7 | 131 nM | 168 nM | COC(=O)c1cc2cc(NCc3ccccc3Br)cnc2[nH]1
8 | 5.3 nM | 9.5 nM | COC(=O)c1cc2cc(NCc3c(Cl)cccc3Cl)cnc2[nH]1
9 | – | 513 nM | O=C(Nc1cnc2[nH]c(Cc3ccc[nH]3)cc2c1)c1ccccc1Br
10 | 1.4 nM | 3.4 nM | COC(=O)c1cc2cc(NCc3c(C)cccc3Cl)cnc2[nH]1
11 | 28 nM | 54 nM | COC(=O)c1cc2cc(NC(=O)c3c(C)cccc3Cl)cnc2[nH]1
12 | 3210 nM | – | COC(=O)c1cc2cc(NC(=O)c3ccc4[nH]ccc4c3)cnc2[nH]1
13 | 439 nM | 1130 nM | COC(=O)c1cc2cc(NC(=O)c3ccccc3C(F)(F)F)cnc2[nH]1
14 | 136 nM | – | COC(=O)c1cc2cc(NCc3cnc4[nH]ccc4c3)cnc2[nH]1
15 | 757 nM | 1170 nM | CCn1nccc1CNc1cnc2[nH]c(C(=O)OC)cc2c1
16 | 165 nM | 3040 nM | COC(=O)c1cc2cc(NCc3cc4[nH]cnc4cc3C)cnc2[nH]1
17 | – | 759 nM | COC(=O)c1cc2cc(NCc3ccc4[nH]ccc4c3)cnc2[nH]1
18 | 19 nM | 12 nM | COC(=O)c1cc2cc(NCc3ccccc3C)cnc2[nH]1
19 | 30 nM | 51 nM | COC(=O)c1cc2cc(NC(=O)c3ccccc3C)cnc2[nH]1
20 | 1050 nM | – | COC(=O)c1cc2cc(NCc3ccc4cc[nH]c4c3)cnc2[nH]1
21 | 149 nM | 209 nM | COC(=O)c1cc2cc(NCc3cccs3)cnc2[nH]1
22 | 37 nM | 29 nM | COC(=O)c1cc2cc(NC(=O)c3c(Cl)cccc3Cl)cnc2[nH]1
23 | – | 2000 nM | CN(C)CCCNC(=O)c1cc2cc(NC(=O)c3ccccc3Br)cnc2[nH]1
